For assay [1], the target named is T1, Gonadotropin-releasing hormone receptor (Rattus norvegicus, UniProt P30969).
T1 sequence (P30969 whole entry): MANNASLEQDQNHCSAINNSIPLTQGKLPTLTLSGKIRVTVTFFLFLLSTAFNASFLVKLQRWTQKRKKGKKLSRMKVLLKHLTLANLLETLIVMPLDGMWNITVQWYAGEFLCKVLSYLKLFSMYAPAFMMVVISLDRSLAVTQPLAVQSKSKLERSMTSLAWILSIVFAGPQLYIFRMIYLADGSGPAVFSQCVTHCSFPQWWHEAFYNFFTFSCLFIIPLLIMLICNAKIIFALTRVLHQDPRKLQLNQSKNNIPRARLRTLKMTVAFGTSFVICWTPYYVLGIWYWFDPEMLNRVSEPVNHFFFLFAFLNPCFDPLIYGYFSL
As to the kind of experiment: Binding affinity at Leutinizing releasing hormone receptor in rat pituitary using [125I]leuprolide as radioligand.

The target in assay [2] is T2, Gonadotropin-releasing hormone receptor (Rattus norvegicus) (UniProt P30969).
T2 sequence (whole entry): T1 sequence (P30969 whole entry)
In words: Apparent receptor density at 1.0*10e-5 M concentration.

Assay [3] addresses T1, Gonadotropin-releasing hormone receptor. In words: Dissociation constant was determined in vitro using rat pituitary membranes and [125I]leuprolide as radioligand, at concentration 3.16*10e-5 M. It is filed as cell membranes.
Assay [4] has the same target. As to the kind of experiment: Dissociation constant was determined in vitro using rat pituitary membranes and [125I]-leuprolide as radioligand, at concentration 3.16*10e-6 M. The class given is cell membranes.
For the next assay, the species on record is Rattus norvegicus. As to the kind of experiment: Antagonism of leuprolide-induced release of luteinizing hormone from rat pituitary cell. It is filed as functional. The note with it: Pituitary gland cell, read-out: pA2 (converted).
In assay [5] the target is T1, Gonadotropin-releasing hormone receptor. As to the kind of experiment: Binding affinity at LH-RH receptor in rat pituitary using [125I]leuprolide as radioligand.
Assay [6] concerns the target T2, Gonadotropin-releasing hormone receptor (Rattus norvegicus). In words: Apparent receptor density at 3.16*10e-5 M concentration.
For assay [7] the target is unchanged. In words: Apparent receptor density at 3.16*10e-6 M concentration.
In assay [8] the target is T1, Gonadotropin-releasing hormone receptor. As to the kind of experiment: Dissociation constant was determined in vitro using rat pituitary membranes, at concentration 1.0*10e-5 M. It is filed as cell membranes.

The structures appear in SMILES notation.

The IC50 is the concentration that inhibits the measured activity by half. Read a low IC50 as greater potency. In [1], `OC[C@H]1CO[C@](Cn2ccnc2)(c2ccc(Cl)cc2Cl)O1` yielded an IC50 above 30 µM.

`Clc1ccc([C@@]2(Cn3ccnc3)OC[C@H](COc3ccccc3)O2)c(Cl)c1` returned an IC50 in assay [1] above 30 µM.

Turning to `O=C(NC[C@H]1CO[C@](Cn2ccnc2)(c2ccc(Cl)cc2Cl)O1)[C@H](Cc1c[nH]cn1)NC(=O)[C@@H]1CCC(=O)N1C(=O)OCc1ccccc1`, the IC50 in assay [1] came out at 2 µM.

As for `O=C(NC[C@H]1CO[C@](Cn2ccnc2)(c2ccc(Cl)cc2Cl)O1)C1CCC(=O)N1C(=O)OCc1ccccc1` (some centres not stated), the IC50 in assay [1] is above 30 µM.

As usually defined, the Kd is the constant that tells how readily two partners part at equilibrium. As for `CC(=O)N1CCN(c2ccc(OCC3COC(Cn4ccnc4)(c4ccc(Cl)cc4Cl)O3)cc2)CC1` (configuration not stated) [KETOCONAZOLE], the values for the Bmax in assay [2], in assay [6] and in assay [7] were 2.01 pmol/mg, 1.6 pmol/mg and 1.91 pmol/mg, respectively. Also, the figures for the Kd in assay [3], in [4] and in assay [8] were 0.811 µM, 0.000221 µM and 0.000375 µM, respectively. Further, the Kb in the assay listed under Rattus norvegicus was 64.6 µM. Further, the IC50 in assay [5] was found to be 2 µM.

The compound `O=C1c2ccccc2C(=O)N1C[C@H]1CO[C@](Cn2ccnc2)(c2ccc(Cl)cc2Cl)O1` showed an IC50 in [1] above 30 µM.

In [1], `CCC(C)n1ncn(-c2ccc(N3CCN(c4ccc(OC[C@H]5CO[C@](Cn6ccnc6)(c6ccc(Cl)cc6Cl)O5)cc4)CC3)cc2)c1=O` (some centres not stated) yielded an IC50 above 30 µM.

With `CC(C)(C)OC(=O)N[C@@H](Cc1c[nH]c2ccccc12)C(=O)N1CCC[C@H]1C(=O)N[C@@H](CC1=CNCN1)C(=O)NC[C@H]1CO[C@](Cn2ccnc2)(c2ccc(Cl)cc2Cl)O1`, in the assay listed under Rattus norvegicus, the Kb is 4.57 µM. In assay [1], this compound yielded an IC50 of 0.5 µM.

With `Clc1ccc([C@@]2(Cn3ccnc3)OC[C@H](CNCc3c[nH]c4ccccc34)O2)c(Cl)c1`, the concentration for half-maximal inhibition (IC50) in assay [1] was above 30 µM.

For the origin of these results see ChEMBL document CHEMBL1124577, “LH-RH antagonists: design and synthesis of a novel series of peptidomimetics” (J Med Chem, 1989).
